Test results from US11517570B2 (Kronos Bio, Inc., priority 2013, dated 2022).

System: human hepatocytes
Assay: Human Hepatocyte Stability Assay
Assay type: in vitro ADME
Conditions: comparison table with known compounds; head prints "(units)", L/hr/kg from the method
Method: The human […] stability of the compounds as predicted hepatocyte clearance in L/hr/kg was assessed. Compounds to be tested were diluted to 200 μM (4 μl of 10 mM DMSO stock into 196 μl ACN:H2O (50:50). Propranolol was used as a positive control, and buffer only without hepatocytes as 0% control. These were further diluted 4 μl with 891 μl KHB buffer (InVitroGRO catalog number Z99074) to provide 2× dosing solution. To each well of 24 well plate, 250 μl of the 2× dosing solution was added to each well with 250 μl of hepatocytes cells (1×10^6 viable cells/ml per well) or KHB for control samples to achieve a final compound concentration of 1 μM during incubation. The final solvent concentration was 0.01% DMSO and 0.25% ACN. The culture plate was placed on a rocker and incubated at 37° C., 5% CO2. Samples were collected at time 0, 1, 3, and 6 hours. The loss of parent compound was determined using LC-MS methods against a standard curve.

Row | SMILES | Hheps CL [mL/min/kg]
1 | COc1ccc(Nc2nc(-c3cccc(N)c3)cn3ccnc23)cc1OC [6-(3-aminophenyl)-N-(3,4-dimethoxyphenyl)imidazo[1,2-a]pyrazin-8-amine, reference compound] | 4
2 | Cc1ncc(-c2cn3ccnc3c(Nc3ccc(N4CCOCC4)cc3)n2)cc1N [6-(5-amino-6-methylpyridin-3-yl)-N-(4-morpholinophenyl)imidazo[1,2-a]pyrazin-8-amine, reference compound] | 13.3
3 | Nc1cncc(-c2cn3ccnc3c(Nc3ccc(N4CCOCC4)cc3)n2)c1 [6-(5-aminopyridin-3-yl)-N-(4-morpholinophenyl)imidazo[1,2-a]pyrazin-8-amine, reference compound] | 11.3
4 | COc1ccc(Nc2nc(-c3ccc(N)nc3)cn3ccnc23)cc1OC [6-(6-aminopyridin-3-yl)-N-(3,4-dimethoxyphenyl)imidazo[1,2-a]pyrazin-8-amine, reference compound] | 15
5 | Cc1ncc(-c2cn3ccnc3c(Nc3ccc(N4CCN(C5COC5)CC4)cc3)n2)nc1N [Ex.-1, 6-(6-amino-5-methylpyrazin-2-yl)-N-(4-(4-(oxetan-3-yl)piperazin-1-yl)phenyl)imidazo[1,2-a]pyrazin-8-amine] | 2
6 | Nc1cncc(-c2cn3ccnc3c(Nc3ccc(N4CCN(C5COC5)CC4)cc3)n2)n1 [Ex.-2, 6-(6-aminopyrazin-2-yl)-N-(4-(4-(oxetan-3-yl)piperazin-1-yl)phenyl)imidazo[1,2-a]pyrazin-8-amine] | 0.917
7 | Nc1cncc(-c2cn3ccnc3c(Nc3ccc(N4CCO[C@@H](CO)C4)cc3)n2)n1 [Ex.-3, (R)-(4-(4-((6-(6-aminopyrazin-2-yl)imidazo[1,2-a]pyrazin-8-yl)amino)phenyl)morpholin-2-yl)methanol] | 1.5
8 | Cc1c(-c2cncc(N)n2)nc(Nc2ccc(N3CCN(C4COC4)CC3)cc2)c2nccn12 [Ex.-4, 6-(6-aminopyrazin-2-yl)-5-methyl-N-(4-(4-(oxetan-3-yl)piperazin-1-yl)phenyl)imidazo[1,2-a]pyrazin-8-amine] | 1.3
9 | Nc1cncc(-c2cn3ccnc3c(Nc3ccc(N4CCN(C5COC5)CC4)c(OCCO)c3)n2)n1 [Ex.-5, 2-(5-((6-(6-aminopyrazin-2-yl)imidazo[1,2-a]pyrazin-8-yl)amino)-2-(4-(oxetan-3-yl)piperazin-1-yl)phenoxy)ethanol] | 1.2
10 | Nc1cncc(-c2cn3ccnc3c(Nc3ccc(N4CCN(CC(CO)CO)CC4)cc3)n2)n1 [Ex.-6, 2-((4-(4-((6-(6-aminopyrazin-2-yl)imidazo[1,2-a]pyrazin-8-yl)amino)phenyl)piperazin-1-yl)methyl)propane-1,3-diol] | 1.3
11 | Cc1ncc(-c2cn3ccnc3c(Nc3ccc(N4CCN(C5COC5)CC4)c(OCCO)c3)n2)nc1N [Ex.-7, 2-(5-((6-(6-amino-5-methylpyrazin-2-yl)imidazo[1,2-a]pyrazin-8-yl)amino)-2-(4-(oxetan-3-yl)piperazin-1-yl)phenoxy)ethanol] | 0.83
